How the values were obtained:
[1] = system: collagen production in human skin fibroblast cell line; experiment: collagen production in human skin fibroblasts, EIA; format: cell-based; conditions: for Mean (collagen EIA, absorbance at 450 nm) / Median (collagen EIA, absorbance at 450 nm): 48 hours, n=2; for collagen production versus control: 10^−5 and 10^−6 M, P<0.001
Procedure: The stimulation response of the 19mer peptide on collagen production in the human skin fibroblast cell line (Clonetics, Walkersville, Md., normal human dermal fibroblasts, neonatal, catalog number CC-2509) was measured using Takara Biomedicals EIA assay kit (TAK MKO101) sold by Panvera (Madison, Wis.). The cells were first grown in a 96-well assay system using DMEM with 10% fetal bovine serum (FBS) both purchased from Sigma Chemical Co, St. Louis, Mo. Serum-free DMEM was used as a control. […] Plates were incubated for 24 hours at 37° C. in a humidified 5% CO2 atmosphere. After incubation, the medium was aspirated and the wells were rinsed twice with 100 μl of serum-free DMEM. […] In addition, 100 μl of vehicle (serum-free DMEM) was added to 4 wells as control. All wells were incubated for 48 hours at 37° C. in a humidified, 5% CO2 atmosphere.
The assay was performed using the recommended 20ul of the supernatant from each well of the 96-well plate. Standard buffer and stop solutions were freshly prepared before running the assay. 100ul of antibody-POD conjugate solution (supplied with the kit) was added into the wells using pre antibody coated 96 well plate (supplied with the kit). 20ul of standard and test solutions (from the other 96-well plate containing fibroblasts) were added to appropriate wells. Plate was mixed gently, sealed and incubated for three hrs. at 37° C.
After incubation each well was washed carefully four times with PBS buffer (400ul). All the wells were completely emptied at the end of washing from any liquid. 100ul of substrate solution (hydrogen peroxide and tetramethylbenzidine in a buffer solution, supplied with the kit) was added to each well and the plate was incubated for 15 minutes. At this point 100ul of stop solution (freshly prepared 1N H2SO4) was added to each well in the same order as substrate. The plate was gently mixed and absorbance was read at 450 nm. Results were analyzed statistically using one-way ANOVA.

[2] = system: normal human epidermal keratinocytes; experiment: keratinocyte proliferation, Cell Titer 96, OD 490 nm; format: cell-based; conditions: 48 hours
Procedure: The proliferative response of these human skin keratinocytes to the 19mer peptide was measured in a 96-well assay system using keratinocyte basal medium (KBM, Clonetics, catalog number CC-3103) as a control. […] The plates were incubated for 24 hours at 37° C. in a humidified 5% CO2 atmosphere. […] In addition, 100 μl of vehicle KBM was added to 10 wells as control. The plate was incubated for 48 hours at 37° C. in a humidified, 5% CO2 atmosphere. After incubation, 20 μl of Cell Titer 96 Aqueous One Solution was added to all wells. The plate was swirled gently and placed back in the incubator for 3 hours. The spectrophotometric absorbance of each well was read at 490 nm. Results were analyzed statistically using one-way ANOVA.

[3] = system: C57BL6/KsJ db/db mice; experiment: wound healing in db/db diabetic mice; format: in vivo
Source text: The mice were obtained from The Jackson Laboratories and were aged 3–7 months before the onset of the wounding protocol. All mice were anesthetized prior to wounding. Wounds were created in C57BL6/KsJ db/db mice with a 4 mm biopsy punch. Two wounds were introduced onto the upper back of each animal by pulling the skin away from underlying structures and pushing the punch through the isolated skin. Typically, wounds were created to an average depth of 1.7 mm, with a range of 1.3 to 2.2 mm. No muscle involvement occurred during the course of wounding.
Each day the wounds were digitally photographed and wound areas were determined by computer integration of the photographs. All wound treatments and the subsequent data analyses were performed in a blind manner (see e.g., Brown et al., 1994). Wound area at the time of wounding (day 0) is arbitrarily set to a relative value of 1 for all wounds; such that subsequent wound areas are converted to relative wound areas by dividing the wound area at day n by the wound area at day zero.

[4] = system: EpiDerm skin model; experiment: viability assay (MTT) in EpiDerm skin model; format: cell-based; conditions: peptide at 500 μM and 2 mM, relative to PBS control
Procedure: The sample containers were transferred to 6 well plates that contained fresh media. All peptides were dissolved in PBS at a final concentration of 10 mM, and 100 μL each peptide solution was pipetted onto the surface of the Epiderm sample container. Incubation was continued for 12 hours at 37° C., 5% CO2. After the incubation period, the sample containers were washed three times with PBS and the sample containers were transferred to a 24 well plate that contained 300 μL of MTT assay media per well (MTT concentration was 1 mg/mL). The colorimetric assay was allowed to develop for three hours (incubation at 37° C., 5% CO2). Sample containers were then transferred to a 24 well culture plate that contained 2 mL of isopropanol per well. Extraction of the colored precipitate occurred over a period of four hours at room temperature. Absorbance readings were taken at 570 nm and 650 nm for each sample. The percent viability of each sample relative to a PBS control was calculated as: 100×(OD570^sam−OD650^sam)/(OD570^con−OD650^con) (6) Routinely, the peptide sample was assayed in triplicate. Results

[5] = target: T1, MMP-2 (Homo sapiens, UniProt P08253); experiment: isothermal titration calorimetry with MMP-2; format: binding; conditions: ITC, 10 mM NaCl at 25° C.
T1 sequence (P08253 110-660): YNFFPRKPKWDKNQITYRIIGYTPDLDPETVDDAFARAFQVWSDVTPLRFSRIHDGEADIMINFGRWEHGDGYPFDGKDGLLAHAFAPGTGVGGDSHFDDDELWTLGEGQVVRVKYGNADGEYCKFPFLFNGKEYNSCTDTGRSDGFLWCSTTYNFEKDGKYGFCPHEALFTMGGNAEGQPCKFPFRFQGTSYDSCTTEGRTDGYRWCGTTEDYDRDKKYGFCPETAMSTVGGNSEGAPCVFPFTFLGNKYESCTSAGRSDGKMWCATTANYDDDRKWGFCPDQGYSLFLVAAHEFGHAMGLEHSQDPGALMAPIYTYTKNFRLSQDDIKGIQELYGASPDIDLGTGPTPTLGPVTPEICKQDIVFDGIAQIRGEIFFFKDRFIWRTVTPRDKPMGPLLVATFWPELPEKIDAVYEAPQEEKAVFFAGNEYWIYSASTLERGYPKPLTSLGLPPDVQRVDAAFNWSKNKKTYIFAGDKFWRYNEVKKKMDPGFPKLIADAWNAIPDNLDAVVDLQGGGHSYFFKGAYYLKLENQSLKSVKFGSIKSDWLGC

[6] = single dose 5 μL of 20 μg/mL at day zero
[7] = MMP-2, 20 mM cacodylate (pH 6.8)

**Q.** Which results are given for `CC(C)[C@H](NC(=O)[C@H](CC(=O)O)NC(=O)[C@@H]1CCCN1C(=O)[C@H](CC(N)=O)NC(=O)CNC(=O)[C@H](CS)NC(=O)[C@H](CCCNC(=N)N)NC(=O)[C@@H]1CCCN1)C(=O)N[C@@H](C)C(=O)N[C@@H](CC(N)=O)C(=O)N[C@@H](Cc1ccc(O)cc1)C(=O)N[C@@H](CC(N)=O)C(=O)N[C@@H](Cc1ccccc1)C(=O)N[C@@H](Cc1ccccc1)C(=O)N1CCC[C@H]1C(=O)N[C@@H](CCCNC(=N)N)C(=O)N[C@@H](CCCCN)C(=O)N1CCC[C@H]1C(=O)N[C@@H](CCCCN)C(=O)O` [Peptide 19-mer]?
**A.** Mean (collagen EIA, absorbance at 450 nm) ([1]; 1×10^−5 M): 0.8365; Median (collagen EIA, absorbance at 450 nm) ([1]; 1×10^−5 M): 0.8365; Mean (collagen EIA, absorbance at 450 nm) ([1]; 1×10^−6 M): 0.8315; Median (collagen EIA, absorbance at 450 nm) ([1]; 1×10^−6 M): 0.8315; collagen production versus control [1]: increased collagen production; collagen production versus control ([1]; listed as 19mer peptide): statistically significant amounts; keratinocyte cell growth versus control ([2]; 1×10^−4 M, P<0.001): even greater cell growth; keratinocyte cell density versus control ([2]; 1×10^−5 M, P<0.01): significantly greater cell density; keratinocyte cell proliferation versus control ([2]; 1×10^−6 M, P>0.05): only a small amount of cell proliferation; wound inflammation ([3]; day one post wounding): reduction in wound inflammation; day on which wound contraction process began [3, 6]: 5 days; time to wound closure post wounding [3, 6]: 9 days; total average viability [4]: 97.6%; Stoichiometry ([5]; MMP-2 20 μM, 19-mer 1 mM, 20 mM cacodylate (pH 6.8)): 0.99 ± 0.03; ΔH [5, 7]: -15.4 ± 2.05 kcal/mol; ΔS [5, 7]: −21.1 ± 1.8 cal mol^−1 K^−1

From US7148194B2, “Method to increase fibronectin” (Kimberly-Clark Worldwide, Inc., priority 2002, dated 2006)
